Assay results published in ChEMBL document CHEMBL5033999, “Eriodictyol-Amplified 67-kDa Laminin Receptor Signaling Potentiates the Antiallergic Effect of O-Methylated Catechin” (J Nat Prod, 2021).
Calls of active or inactive are those of the source. No cut-off for these calls is given here.

How the values were obtained:
[1] = test system: Mus musculus; experiment: Inhibition of IgE/Ag-mediated immediate hypersensitivity reaction in BALB/c mouse assessed as change in the level of skin extravasation at 0 to 4 mg/kg, po administered 1 hr prior to Ag challenge; format: functional, organism-based; conditions: dose 0-4 mg/kg
[2] = test system: RBL-2H3; experiment: Inhibition of mast cell degranulation in rat RBL-2H3 cells assessed as induction of ASM activation at 1 to 25 uM incubated for 3 hrs measured by TLC analyses; format: functional, cell-based; conditions: dose 1-25 µM
[3] = test system: RBL-2H3; experiment: Inhibition of DNP-HAS-stimulated mast cell degranulation in rat RBL-2H3 cells assessed as reduction in beta-hexosaminidase release at 1 to 25 uM incubated for 3 hrs followed by DNP-HAS stimulation for 1 hr; format: functional, cell-based; conditions: dose 1-25 µM
[4] = test system: RBL-2H3; experiment: Inhibition of mast cell degranulation in rat RBL-2H3 cells assessed as induction of ASM activation pre-treated with anti-67LR antibody for 3 hrs followed by compound treatment at 25 uM for 3 hrs; format: functional, cell-based
[5] = test system: RBL-2H3; experiment: Inhibition of mast cell degranulation in rat RBL-2H3 cells assessed as reduction in beta-hexosaminidase release pre-treated with 5 uM ASM-specific inhibitor desipramine for 3 hrs followed by compound treatment at 25 uM for 3 hrs; format: functional, cell-based
[6] = test system: RBL-2H3; experiment: Inhibition of DNP-HAS-stimulated mast cell degranulation in rat RBL-2H3 cells assessed as reduction in beta-hexosaminidase release pre-treated with 5 uM sGC inhibitor NS2028 for 1 hr followed by compound treatment at 25 uM for 3 hrs; format: functional, cell-based
[7] = test system: RBL-2H3; experiment: Inhibition of DNP-HAS-stimulated mast cell degranulation in rat RBL-2H3 cells assessed as reduction in beta-hexosaminidase release at 0.5 uM; format: functional, cell-based
[8] = test system: RBL-2H3; experiment: Inhibition of DNP-HAS-stimulated mast cell degranulation in rat RBL-2H3 cells assessed as reduction in beta-hexosaminidase release at 0.5 uM in presence of 0.1 uM eriodictyol; format: functional, cell-based
[9] = test system: RBL-2H3; experiment: Inhibition of DNP-HAS-stimulated mast cell degranulation in rat RBL-2H3 cells assessed as induction of ASM activation at 0.5 uM; format: functional, cell-based
[10] = test system: RBL-2H3; experiment: Inhibition of DNP-HAS-stimulated mast cell degranulation in rat RBL-2H3 cells assessed as induction of ASM activation at 0.5 uM in presence of 0.1 uM eriodictyol; format: functional, cell-based
[11] = test system: RBL-2H3; experiment: Inhibition of DNP-HAS-stimulated mast cell degranulation in rat RBL-2H3 cells assessed as reduction in beta-hexosaminidase release at 0.01 to 1 uM; format: functional, cell-based; conditions: dose 0.01-1 µM
[12] = test system: RBL-2H3; experiment: Inhibition of DNP-HAS-stimulated mast cell degranulation in rat RBL-2H3 cells assessed as reduction in beta-hexosaminidase release at 0.1 uM; format: functional, cell-based
[13] = test system: RBL-2H3; experiment: Inhibition of DNP-HAS-stimulated mast cell degranulation in rat RBL-2H3 cells assessed as induction of ASM activation at 0.1 uM; format: functional, cell-based
[14] = test system: RBL-2H3; experiment: Inhibition of DNP-HAS-stimulated mast cell degranulation in rat RBL-2H3 cells assessed as reduction in beta-hexosaminidase release at 1 uM incubated for 3 hrs; format: functional, cell-based

Question: Which inhibition [1] does the source give for O=C1C[C@@H](c2ccc(O)c(O)c2)Oc2cc(O[C@@H]3O[C@H](CO)[C@@H](O)[C@H](O)[C@H]3O)cc(O)c21 here?
Answer: inactive

Question: Which results are given for COc1cc(C(=O)O[C@@H]2Cc3c(O)cc(O)cc3O[C@@H]2c2cc(O)c(O)c(O)c2)cc(O)c1O?
Answer: inhibition [2]: Active; inhibition [3]: Active; inhibition [4]: inactive; inhibition [5]: inactive; inhibition [6]: inactive; inhibition [7]: inactive; inhibition [8]: Active; inhibition [9]: inactive; inhibition [10]: Active

Question: O=C1C[C@@H](c2ccc(O)c(O)c2)Oc2cc(O)cc(O)c21 was tested. Which inhibition [11] did it give?
Answer: inactive

Question: What about the inhibition [12] of the same compound?
Answer: inactive

Question: What about the inhibition [13] of the same compound?
Answer: inactive

Question: For Nc1nc(-c2nn(Cc3ccccc3F)c3ncccc23)ncc1C1CC1, which inhibition [14] is on record?
Answer: Active
